In ChEMBL document CHEMBL1157759, “Discovery of GS-9131: Design, synthesis and optimization of amidate prodrugs of the novel nucleoside phosphonate HIV reverse transcriptase (RT) inhibitor GS-9148” (Bioorg Med Chem, 2010):

Key:
[1] = Half life in dog hepatocytes at 2 uM by LC/MS/MS analysis
PBMC = assay: Metabolic stability in cathepsin A-overexpressing human PBMC assessed as compound degradation per ug of protein at 10 uM after 120 mins by scintillation counting; details: 2 h, 30 µM
[2] = system: Human immunodeficiency virus 1; assay: Antiviral activity against HIV1 3B infected in human MT2 cells assessed as inhibition of virus-induced cytopathic effect after 5 days by XTT assay; assay type: functional, organism-based
[3] = Hydrolytic stability assessed as compound degradation per ug of protein at 10 uM after 90 mins by scintillation counting in presence of human recombinant cathepsin A; details: 1.5 h
[4] = Cytotoxicity against human MT2 cells after 5 days by XTT assay
[5] = Metabolic stability in dog plasma assessed as compound remaining after 60 mins
Homo sapiens = species on record: Homo sapiens; assay: in vitro; details: plasma
[6] = Clearance in iv dosed Beagle dog after 24 hrs; details: in vivo
[7] = Half life in human hepatocytes at 2 uM by LC/MS/MS analysis
[8] = Half life in dog intestine S9 fraction at 2 uM by LC/MS/MS analysis; details: intestine S9 fraction, t1/2
[9] = Cytotoxicity against human HepG2 cells assessed as inhibition of mitochondrial DNA replication after 14 days; details: read-out: MTC50
[10] = Human immunodeficiency virus 1, 3B, MT2, 120 h

Row | Structure (SMILES) | Activity (PBMC) [pmol/min] | Activity [3] [pmol/min] | EC50 [2, 10] [nM] | CC50 at 120 h [4] [nM] | also measured
1 | CC(C)OC(=O)[C@H](C)NP(=O)(CO[C@@H]1C=C(F)[C@H](n2cnc3c(N)ncnc32)O1)Oc1ccccc1 (stereo in doubt; 18s) [(2S)-ISOPROPYL 2-(((2R,5R)-5-(6-AMINO-9H-PURIN-9-YL)-4-FLUORO-2,5-DIHYDROFURAN-2-YLOXY)(PHENOXY)PHOSPHORYLAMINO)PROPANOATE (ENANTIOMERIC MIX)] | 0.3 | 216 | – | – | half-life at 2 µM ([1]; t1/2): 1.47 h; EC50 ([2]; mt2): 728 nM
2 | CC[C@H](NP(=O)(CO[C@@H]1C=C(F)[C@H](n2cnc3c(N)ncnc32)O1)Oc1ccccc1)C(=O)OCC(C)C (stereo partly specified) | 1.9 | 728 | 103 | > 100000 | half-life at 2 µM ([1]; t1/2): 2.12 h
3 | CC(C)COC(=O)[C@H](Cc1ccccc1)NP(=O)(CO[C@@H]1C=C(F)[C@H](n2cnc3c(N)ncnc32)O1)OCC(F)(F)F (stereo partly specified) | 22 | 30107 | 119 | > 100000 | half-life at 2 µM [1]: 0.45 h
4 | CC(C)COC(=O)[C@H](C)NP(=O)(CO[C@@H]1C=C(F)[C@H](n2cnc3c(N)ncnc32)O1)N[C@@H](C)C(=O)OCC(C)C | 2.1 | 1770 | 119 | > 100000 | half-life at 2 µM [1]: 3.22 h
5 | CCCCOC(=O)[C@H](C)NP(=O)(CO[C@@H]1C=C(F)[C@H](n2cnc3c(N)ncnc32)O1)N[C@@H](C)C(=O)OCCCC | 18 | 17355 | 68 | 51000 | half-life at 2 µM [1]: 0.8 h; remaining at 1 h [5]: 100%; remaining at 1 h (Homo sapiens): 96%; clearance at 24 h [6]: 53.7 mL/min/kg
6 | CCCOC(=O)[C@H](C)NP(=O)(CO[C@@H]1C=C(F)[C@H](n2cnc3c(N)ncnc32)O1)Oc1ccccc1 (stereo partly specified) | 26 | 19103 | 52 | 31000 | half-life at 2 µM ([1]; t1/2): 1.47 h
7 | CCCCSC(=O)[C@@H](Cc1ccccc1)NP(=O)(CO[C@@H]1C=C(F)[C@H](n2cnc3c(N)ncnc32)O1)Oc1ccccc1 (stereo partly specified) | 2.1 | 1510 | 141 | > 100000 | half-life at 2 µM ([1]; t1/2): 0.933 h
8 | C[C@H](NP(=O)(CO[C@@H]1C=C(F)[C@H](n2cnc3c(N)ncnc32)O1)Oc1ccccc1)C(=O)OCC1CC1 (stereo partly specified) | – | – | 59 | – | –
9 | CCCOC(=O)[C@H](Cc1ccccc1)NP(=O)(CO[C@@H]1C=C(F)[C@H](n2cnc3c(N)ncnc32)O1)N[C@@H](Cc1ccccc1)C(=O)OCCC | 20 | 27642 | 5.2 | – | –
10 | CC(C)COC(=O)[C@H](C)NP(=O)(CO[C@@H]1C=C(F)[C@H](n2cnc3c(N)ncnc32)O1)Oc1ccccc1 (stereo partly specified) | – | – | 58 | – | –
11 | Nc1ncnc2c1ncn2[C@@H]1O[C@H](OCP(=O)(N[C@@H](Cc2ccccc2)C(=O)OCC2CC2)Oc2ccccc2)C=C1F (stereo partly specified) | 41 | 39270 | 7.5 | > 100000 | half-life at 2 µM ([1]; t1/2): 0.283 h; half-life at 2 µM ([7]; t1/2): 0.667 h
12 | Nc1ncnc2c1ncn2[C@@H]1O[C@H](OCP(=O)(N[C@@H](Cc2ccccc2)C(=O)OCC2CCC2)Oc2ccccc2)C=C1F (stereo partly specified) | 24 | 37017 | 3.8 | 46500 | half-life at 2 µM ([1]; t1/2): 0.383 h; half-life at 2 µM [8]: 3.4 min; half-life at 2 µM ([7]; t1/2): 1.03 h
13 | CCOC(=O)[C@H](C)NP(=O)(CO[C@@H]1C=C(F)[C@H](n2cnc3c(N)ncnc32)O1)Oc1ccccc1 (stereo partly drawn) [(2S)-ETHYL 2-((((2R,5R)-5-(6-AMINO-9H-PURIN-9-YL)-4-FLUORO-2,5-DIHYDROFURAN-2-YLOXY)METHYL)(PHENOXY)PHOSPHORYLAMINO)PROPANOATE (ENANTIOMERIC MIX)] | – | – | – | – | EC50 ([2]; mt2): 96 nM
14 | C[C@H](NP(=O)(CO[C@@H]1C=C(F)[C@H](n2cnc3c(N)ncnc32)O1)Oc1ccccc1)C(=O)OCC1CCC1 (stereo partly specified) | – | – | 25 | – | –
15 | CCCOC(=O)[C@H](Cc1ccccc1)NP(=O)(CO[C@@H]1C=C(F)[C@H](n2cnc3c(N)ncnc32)O1)Oc1ccccc1 (stereo partly specified) | – | – | 4.9 | – | –
16 | C[C@H](NP(=O)(CO[C@@H]1C=C(F)[C@H](n2cnc3c(N)ncnc32)O1)Oc1ccccc1)C(=O)OC1CCCC1 (stereo partly specified) | 3 | 5688 | 63 | > 100000 | –
17 | CCCOC(=O)[C@H](C)NP(=O)(CO[C@@H]1C=C(F)[C@H](n2cnc3c(N)ncnc32)O1)N[C@@H](C)C(=O)OCCC | – | – | 1060 | – | –
18 | CCCCOC(=O)[C@H](CC)NP(=O)(CO[C@@H]1C=C(F)[C@H](n2cnc3c(N)ncnc32)O1)Oc1ccccc1 (stereo partly specified) | 1.4 | 1377 | 88 | 70000 | half-life at 2 µM ([1]; t1/2): 1.52 h
19 | CCCCOC(=O)[C@H](Cc1ccccc1)NP(=O)(CO[C@@H]1C=C(F)[C@H](n2cnc3c(N)ncnc32)O1)N[C@@H](Cc1ccccc1)C(=O)OCCCC | 50 | 66680 | 8.4 | 4800 | half-life at 2 µM [1]: 0.167 h

Row | Structure (SMILES) | Activity (PBMC) [pmol/min] | Activity [3] [pmol/min] | EC50 [2, 10] [nM] | CC50 at 120 h [4] [nM] | also measured
20 | CCOC(=O)[C@H](Cc1ccccc1)NP(=O)(CO[C@@H]1C=C(F)[C@H](n2cnc3c(N)ncnc32)O1)N[C@@H](Cc1ccccc1)C(=O)OCC | 40 | 41020 | 8.9 | – | –
21 | CC(C)COC(=O)CNP(=O)(CO[C@@H]1C=C(F)[C@H](n2cnc3c(N)ncnc32)O1)NCC(=O)OCC(C)C | 0 | 0 | 1610 | > 100000 | –
22 | CCOC(=O)[C@H](C)NP(=O)(CO[C@@H]1C=C(F)[C@H](n2cnc3c(N)ncnc32)O1)N[C@@H](C)C(=O)OCC | – | – | 723 | – | –
23 | CC(C)OC(=O)CNP(=O)(CO[C@@H]1C=C(F)[C@H](n2cnc3c(N)ncnc32)O1)NCC(=O)OC(C)C | – | – | > 2000 | – | –
24 | CCC(CC)OC(=O)[C@H](C)NP(=O)(CO[C@@H]1C=C(F)[C@H](n2cnc3c(N)ncnc32)O1)Oc1ccccc1 (stereo partly specified) | 0 | 0 | 662 | 8350 | –
25 | CCOC(=O)[C@H](C)NP(=O)(CO[C@@H]1C=C(F)[C@H](n2cnc3c(N)ncnc32)O1)Oc1ccccc1 (stereo partly specified) [listing 1 of 2 here] | – | – | – | – | EC50 ([2]; mt2): 262 nM
26 | CC(C)COC(=O)CNP(=O)(CO[C@@H]1C=C(F)[C@H](n2cnc3c(N)ncnc32)O1)Oc1ccccc1 (stereo partly specified) | 0.72 | 226 | 1120 | 22000 | –
27 | CCOC(=O)[C@H](C)NP(=O)(CO[C@@H]1C=C(F)[C@H](n2cnc3c(N)ncnc32)O1)Oc1ccccc1 (stereo partly specified) [listing 2 of 2 here] | – | – | – | – | EC50 ([2]; mt2): 157 nM
28 | CCCCCOC(=O)[C@H](C)NP(=O)(CO[C@@H]1C=C(F)[C@H](n2cnc3c(N)ncnc32)O1)Oc1ccccc1 (stereo partly specified) | 6.7 | 5088 | 33 | 27000 | half-life at 2 µM ([1]; t1/2): 0.95 h
29 | CCOC(=O)[C@H](C)OP(=O)(CO[C@@H]1C=C(F)[C@H](n2cnc3c(N)ncnc32)O1)Oc1ccccc1 (stereo partly specified) | – | – | 2000 | – | –
30 | CCCCOC(=O)[C@H](CC)NP(=O)(CO[C@@H]1C=C(F)[C@H](n2cnc3c(N)ncnc32)O1)N[C@@H](CC)C(=O)OCCCC | 1.3 | 1872 | 90 | > 100000 | half-life at 2 µM ([1]; t1/2): 1.22 h; remaining at 1 h ([5]; Stability): 100%; remaining at 1 h (Homo sapiens; Stability): 99%
31 | CCCCOC(=O)[C@H](C)NP(=O)(CO[C@@H]1C=C(F)[C@H](n2cnc3c(N)ncnc32)O1)Oc1ccccc1 (stereo partly specified) | 7.3 | 6183 | 92 | 91000 | half-life at 2 µM ([1]; t1/2): 1.05 h
32 | C[C@H](Cn1cnc2c(N)ncnc21)OCP(=O)(O)O [TENOFOVIR ANHYDROUS] | – | – | 13 | > 50000 | CC50 at 336 h [9]: 3600 nM
33 | CC(C)OC(=O)[C@H](Cc1ccccc1)NP(=O)(CO[C@@H]1C=C(F)[C@H](n2cnc3c(N)ncnc32)O1)Oc1ccccc1 (stereo partly specified) | – | – | 63 | – | –
34 | CCOC(=O)[C@H](C)NP(=O)(CO[C@@H]1C=C(F)[C@H](n2cnc3c(N)ncnc32)O1)OCC(F)(F)F (stereo partly specified) | 0.69 | 1132 | 1050 | > 100000 | half-life at 2 µM [1]: 1.43 h; half-life at 2 µM [7]: 3.08 h
35 | CC[C@H](NP(=O)(CO[C@@H]1C=C(F)[C@H](n2cnc3c(N)ncnc32)O1)N[C@@H](CC)C(=O)OC(C)C)C(=O)OC(C)C | 0.05 | 0 | > 2000 | – | half-life at 2 µM [1]: 11.5 h; remaining at 1 h [5]: 100%; remaining at 1 h (Homo sapiens): 100%
36 | Nc1ncnc2c1ncn2[C@@H]1O[C@H](OCP(=O)(N[C@@H](Cc2ccccc2)C(=O)OC2CCC2)Oc2ccccc2)C=C1F (stereo partly specified) | – | – | 20 | – | –
37 | CC[C@H](NP(=O)(CO[C@@H]1C=C(F)[C@H](n2cnc3c(N)ncnc32)O1)N[C@@H](CC)C(=O)OCC(C)C)C(=O)OCC(C)C | 1.3 | 867 | 128 | – | half-life at 2 µM [1]: 1.18 h
